Test system: human sperm
Assay: Ex vivo incubation of human semen samples with urolithin A, motility by computer-assisted semen analysis (CEROS II)
Format: cell-based
Conditions: for Motile sperm concentration (million/mL), UA vs. DMSO: 4 hours incubation at 36° C.; for Motile sperm concentration (million/mL), UA vs. DMSO / BCF Beat Cross-Frequency, UA vs. DMSO / Rapid progressive motile sperm concentration (million/mL), UA vs. DMSO: increase vs. DMSO; for Rapid progressive motile sperm concentration (million/mL), UA vs. DMSO: rapid progressive motility >25 μm/s; for motile sperm concentration: increase
Description: Sperm samples from five healthy men donors were processed within 1 hour of collection. 3 samples were either diluted 1:1 in culture media containing DMSO or urolithin A (UA) (0.05, 0.1, 0.5, and 2.0 μM in DMSO). For these samples, all treatments contained the same amount of DMSO. Two samples were pre-diluted in culture media, which was then diluted in the treatment solutions, immediately. This was to decrease the eventual effect of seminal plasma. Samples were incubated for 4 hours with the indicated UA doses. For the study, semen samples were obtained by masturbation after 2-7 days of ejaculatory abstinence, according to World Health Organization Guidelines (https://www.who.int/publications/i/item/9789240030787). Samples were collected into sterile wide-mouth polypropylene containers tested for sperm toxicity (BIRR semen collection container, IVF store code 113102). After collection, samples were kept in an air incubator for 1 hour, until semen liquefaction. For experiments, a 50 mM stock Urolithin A (UA) solution was prepared in Dimethyl Sulfoxide (DMSO, Fisher Scientific, BP231-100). At the day of the experiments, a working solution was prepared by diluting the 50 mM stock solution 1:1000 in Sperm Washing Medium (FujiFilm Modified HTF Medium with Human Serum Albumin, 5.0 mg/mL, catalog ID: 9983). A blank working solution containing only DMSO was also prepared by diluting DMSO 1:1000 in Sperm Washing Medium. Treatment solutions were then prepared containing 0, 0.1 μM, 0.2 μM, 1.0 μM, and 4.0 μM were prepared as follows: Treatment solutions were then diluted 1:1 with raw semen (samples A, B, and D) or with semen that had been pre-diluted 1:1 in Sperm Washing Medium (samples C and E), so that final achieved treatment concentrations were 0 (blank, DMSO only, 0.05 µM, 0.1 μM, 0.5 μM, and 2.0 µM UA. This was incubated at 36° C. for 4 hours, after which motility was assessed using a CEROS II system for computer-assisted semen analysis (Hamilton Thorne Inc., Beverly, MA, USA). To achieve this, 4-chamber 20 μm Leja slides (IMV International Ref. 025107-025108) were pre-heated at 37° C. 2.5 μL of each sample was pipetted into each chamber, and the Human Motility module of the CEROS II system was used to capture multiple fields (at least 6) in order to determine sperm motility parameters.

[1] = all doses (0.05, 0.1, 0.5, 2.0 μM), 4 hours incubation

O=c1oc2cc(O)ccc2c2ccc(O)cc12 [UA, Urolithin A]
Motile sperm concentration (million/mL), UA vs. DMSO (0.05 uM UA): 2%
BCF Beat Cross-Frequency, UA vs. DMSO (0.05 uM UA, 4 hours incubation, motile sperm): 5%
Rapid progressive motile sperm concentration (million/mL), UA vs. DMSO (0.05 uM UA, 4 hours incubation): 2%
Motile sperm concentration (million/mL), UA vs. DMSO (0.1 uM UA): 16.8%
BCF Beat Cross-Frequency, UA vs. DMSO (0.1 uM UA, 4 hours incubation, motile sperm): 6%
Rapid progressive motile sperm concentration (million/mL), UA vs. DMSO (0.1 uM UA, 4 hours incubation): 20%
Motile sperm concentration (million/mL), UA vs. DMSO (0.5 uM UA): 10.7%
BCF Beat Cross-Frequency, UA vs. DMSO (0.5 uM UA, 4 hours incubation, motile sperm): 9%
Rapid progressive motile sperm concentration (million/mL), UA vs. DMSO (0.5 uM UA, 4 hours incubation): 10%
Motile sperm concentration (million/mL), UA vs. DMSO (2 uM UA): 21.4%
BCF Beat Cross-Frequency, UA vs. DMSO (2 uM UA, 4 hours incubation, motile sperm): 7%
Rapid progressive motile sperm concentration (million/mL), UA vs. DMSO (2 uM UA, 4 hours incubation): 20%
Motile sperm concentration, effect in words [1]: increased at all doses
Rapid progressive motile sperm concentration, effect in words [1]: increased at all doses
Beat Cross-Frequency, effect in words (all doses (0.05, 0.1, 0.5, 2.0 μM), motile sperm, 4 hours incubation): an increase by UA at all doses
sperm motility / sperm health, effect in words (applied ex vivo to human sperm, especially 0.1 uM to 2 uM): increases sperm motility
motile sperm concentration (highest UA 2 μM dose, 4 hours incubation): 20%
motile sperm concentration (lower dose of UA 0.05 μM, 4 hours incubation): 2%
